In publication PMC2874095 (Journal of medicinal chemistry, 2010):
Where a chain is given by its changes, count along the chain named. Like-named read-outs stand apart in the source and are kept apart here.

Legend:
[1] = tested on: CV1 and HT1080 cells
[2] = target: T1, N1L (Vaccinia virus, UniProt P17361); type: binding
T1 sequence (P17361 1-117): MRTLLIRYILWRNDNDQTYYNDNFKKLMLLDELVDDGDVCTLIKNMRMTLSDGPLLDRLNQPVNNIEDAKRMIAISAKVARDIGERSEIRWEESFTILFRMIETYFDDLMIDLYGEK

[3] = target: T1, N1L; type: binding; remark: listed apart in the source
[4] = target: T2, N1L I6K (Vaccinia virus, UniProt P17361, I6K); type: binding
T2 sequence (P17361 1-117 I6K): T1 sequence (P17361 1-117) with I6K

[5] = target: Bcl-2 (Homo sapiens, UniProt P10415); type: binding; conditions: FPA, incomplete titration curves
[6] = target: Bcl-XL (Homo sapiens, UniProt Q07817); type: binding; conditions: FPA, incomplete titration curves
[7] = tested on: VacV-GFP; type: cell-based, vaccinia virus
[8] = compound concentrations above 100 μM

Sequence of Bcl-XL (Q07817 whole entry): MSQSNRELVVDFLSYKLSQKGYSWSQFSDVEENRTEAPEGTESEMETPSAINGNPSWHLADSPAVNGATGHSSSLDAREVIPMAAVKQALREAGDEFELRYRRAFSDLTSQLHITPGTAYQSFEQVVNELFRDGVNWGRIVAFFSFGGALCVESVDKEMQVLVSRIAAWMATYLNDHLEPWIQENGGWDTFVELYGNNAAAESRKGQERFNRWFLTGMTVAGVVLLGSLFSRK
Sequence of Bcl-2 (P10415 whole entry): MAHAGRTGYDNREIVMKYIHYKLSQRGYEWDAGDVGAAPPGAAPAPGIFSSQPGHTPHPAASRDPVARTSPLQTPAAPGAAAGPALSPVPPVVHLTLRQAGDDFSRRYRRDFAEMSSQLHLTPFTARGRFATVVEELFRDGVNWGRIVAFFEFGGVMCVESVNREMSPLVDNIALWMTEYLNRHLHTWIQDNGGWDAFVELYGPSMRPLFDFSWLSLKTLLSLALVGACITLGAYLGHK

| SMILES | non-specific cytotoxicity (in words) [1, 8] | ΔH of N1L unfolding [2] | binding to Bcl-2 (in words) [5] | binding to Bcl-XL (in words) [6] | other results |
| --- | --- | --- | --- | --- | --- |
| COc1ccc(C(C)c2cc(OC)c(OC)c(OC)c2)cc1 (centres unmarked) [Ligand 2] | no significant non-specific cytotoxicity | – | – | – | – |
| COc1ccc(CCc2cc(OC)c(O)c(OC)c2)cc1 [Ligand 3] | – | 11.0 kcal/mol | – | – | – |
| Oc1ccc(/C=C/c2cc(O)cc(O)c2)cc1 [Ligand 4, trans-Resveratrol] | – | 10.3 kcal/mol | – | – | N1L inhibition (in words) [3]: moderate N1L inhibitor; Tm of N1L I6K [4]: 61.1 °C; ΔH of N1L I6K unfolding [4]: 15.9 kcal/mol |
| COc1cc(C(c2ccccc2)c2ccccc2)c2ccccc2c1O [Ligand 6] | – | 8.7 kcal/mol | – | – | – |
| Oc1cc(C(c2ccccc2)c2ccccc2)c2ccccc2c1O [Ligand 7] | – | 12.3 kcal/mol | poor ligand binding | poor ligand binding | – |
| COc1ccc2ccccc2c1-c1c(O)ccc2ccccc12 [Ligand 8] | – | – | cross-reactivity | cross-reactivity | non-specific cytotoxicity (in words) ([1]; absence of VacV-GFP, up to 150 μM): cytotoxicity in uninfected cells; antiviral activity (in words) [7]: poor antiviral |
| Oc1ccc(/C=N/c2ccccc2/N=C/c2ccc(O)c(O)c2)cc1O [Ligand 9] | no significant non-specific cytotoxicity | 17.8 kcal/mol | – | – | – |
| COc1cc(-c2ccc3cc(OC)c(OC)c(OC)c3c2)cc(OC)c1OC [Ligand 11] | no significant non-specific cytotoxicity | 20.3 kcal/mol | poor ligand binding | poor ligand binding | effect on N1L enthalpy of unfolding (in words) [2]: increase of enthalpy of unfolding; effect on N1L melting temperature (in words) [2]: slight decrease of melting temperature |
| Oc1cc(Cc2ccccc2)c(Cc2ccccc2)cc1O [Ligand 12] | – | 11.2 kcal/mol | – | – | – |
